Read-outs that look alike come from different tables or passages of the source.
Legend:
HIV-1 PR [1] = biological target: T1, HIV-1 PR (Human immunodeficiency virus type 1 group M subtype B, UniProt P04585); settings: values published previously, cited from earlier work
T1 construct: assayed as substrates of the HIV-1 protease (PR)

HIV-1 PR [2] = biological target: T1, HIV-1 PR; assay: Enzyme assay with synthetic oligopeptide substrates (RP-HPLC); format: biochemical, human immunodeficiency virus type 1 (HIV-1); settings: for Km / kcat: Table 3, revertant peptides, 37 °C, 1 h; for Km: 0.25 M potassium phosphate pH 5.6, 7.5% glycerol, 1 mM EDTA, 5 mM DTT, 2 M NaCl, RP-HPLC, Michaelis-Menten fit; for kcat: same buffer, peptides not cleaved at threshold given as estimated kcat < 0.01 s^−1; for kcat/Km: Table 3, specificity constant calculated from the Km and kcat values; for cleavability by HIV-1 PR: threshold estimated kcat < 0.01 s^−1

Sequence	Km (HIV-1 PR [1]; Table 2)	kcat (HIV-1 PR [1]; Table 2)	kcat/Km (HIV-1 PR [1]; Table 2)	Km (HIV-1 PR [2])	kcat (HIV-1 PR [2])	also measured
KIVKCFFCGK [peptide 2, P1′ substituted NC-1 decapeptide […]]	20 µM	0.900 ^1 s^−1	59.6 ^1 mM^−1 s^−1	–	–	–
KIVKCFGCGK [peptide 14, P1′ substituted NC-1 decapeptide […]]	1340 µM	0.002 ^1 s^−1	0.001 ^1 mM^−1 s^−1	–	–	Km (HIV-1 PR [1]; Table 3, repeated from Table 2): 1340 µM; kcat (HIV-1 PR [1]; Table 3, repeated from Table 2): 0.002 s⁻¹; kcat/Km (HIV-1 PR [1]; Table 3, repeated from Table 2): 0.001 mM⁻¹ s⁻¹
KIVKCFNCGK [peptide 1]	430 µM	0.017 ^1 s^−1	0.040 ^1 mM^−1 s^−1	–	–	Km (HIV-1 PR [1]; Table 3, repeated from Table 2): 430 µM; kcat (HIV-1 PR [1]; Table 3, repeated from Table 2): 0.017 s⁻¹; kcat/Km (HIV-1 PR [1]; Table 3, repeated from Table 2): 0.040 mM⁻¹ s⁻¹
KIVKICFGCGKR [peptide 17, revertant NC-1 cleavage site peptide […]]	–	–	–	70 µM	0.025 s⁻¹	kcat/Km (HIV-1 PR [2]): 0.35 mM⁻¹ s⁻¹
KIVTCFGCGK [peptide 15, revertant NC-1 cleavage site peptide […]]	–	–	–	–	<0.010 s⁻¹	cleavability by HIV-1 PR (HIV-1 PR [2]): did not yield a cleavable peptide
RKIVICFGCGKR [peptide 16, revertant NC-1 cleavage site peptide […]]	–	–	–	35 µM	0.034 s⁻¹	kcat/Km (HIV-1 PR [2]): 0.97 ^5 mM^−1 s^−1
RKIVICFGCIKR [peptide 19, revertant NC-1 cleavage site peptide […]]	–	–	–	< 10 µM	0.015 s⁻¹	–
RKIVKCFGCIKR [peptide 18, revertant NC-1 cleavage site peptide […]]	–	–	–	–	<0.010 s⁻¹	cleavability by HIV-1 PR (HIV-1 PR [2]): did not provide a cleavable peptide

Source: paper PMC8227227 (Viruses, 2021)
